The results in this text go back to the NIST ThermoML archive (doi:10.1021/je300920t).

The conditions of data set [1]: Drop volume.
Data set [2] is described as follows: xn = mol fraction of the nth substance listed. The note with it: Drop volume, x1 = 0.5412.

± gives the expanded uncertainty stated by the source.

Consider `NCCO` [2-aminoethan-1-ol], for which the figures for the surface tension liquid-gas in data set [1] (293.15 K), in data set [1] (303.15 K) and in data set [1] (313.15 K) were 48.48 ± 0.47 mN/m, 47.64 ± 0.46 mN/m and 46.88 ± 0.46 mN/m, respectively.
Take `NCCO` [2-aminoethan-1-ol] + O: the surface tension liquid-gas in data set [2] (313.15 K) amounted to 51.5 ± 1.8 mN/m; in data set [2] (323.15 K), 50.4 ± 1.8 mN/m; in data set [2] (333.15 K), 49.3 ± 1.8 mN/m; in data set [2] (343.15 K), 48.1 ± 1.8 mN/m.
